Like-named read-outs stand apart in the source and are kept apart here.
Legend:
Assay type in all cases: in vivo
[1] = system: Abutilon theophrasti (ABUTH); assay: Post-emergence herbicidal action against ABUTH; conditions: visual rating about 3 weeks after treatment vs untreated controls (100% = plants have died, 0% = like control plants)
Summary of the method: (§1)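 Rates were 320 g/ha or below, applied as aqueous WP/EC spray with 0.5% additive (600 l/ha) onto one-leaf-stage plants. About 3 weeks later in the greenhouse, damage was scored visually against untreated plants on a 0–100% scale, where 100% means plants died.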

[2] = system: Alopecurus myosuroides (ALOMY); assay: Post-emergence herbicidal action against ALOMY; conditions: 320 g/ha, visual rating about 3 weeks after treatment vs untreated controls (100% = plants have died, 0% = like control plants)
Summary of the method: as §1

[3] = system: Amaranthus retroflexus (AMARE); assay: Post-emergence herbicidal action against AMARE
Summary of the method: as §1

Avena fatua (AVEFA) = assay: Post-emergence herbicidal action against AVEFA; conditions: 320 g/ha, visual rating about 3 weeks after treatment
Summary of the method: as §1

[4] = system: Digitaria sanguinalis (DIGSA); assay: Post-emergence herbicidal action against DIGSA; conditions: visual rating about 3 weeks after treatment
Summary of the method: as §1

[5] = system: Echinochloa crus-galli (ECHCG); assay: Post-emergence herbicidal action against ECHCG
Summary of the method: as §1

Lolium rigidum (LOLRI) = assay: Post-emergence herbicidal action against LOLRI
Summary of the method: as §1

[6] = system: Matricaria inodora (MATIN); assay: Post-emergence herbicidal action against MATIN
Summary of the method: as §1

[7] = system: Pharbitis purpurea (PHBPU); assay: Post-emergence herbicidal action against PHBPU
Summary of the method: as §1

Setaria viridis (SETVI) = assay: Post-emergence herbicidal action against SETVI
Summary of the method: as §1

[8] = system: Verconica persica (VERPE); assay: Post-emergence herbicidal action against VERPE
Summary of the method: as §1

Viola tricolor (VIOTR) = assay: Post-emergence herbicidal action against VIOTR
Summary of the method: as §1

Oryza sativa (ORYSA) = conditions: crop plant compatibility
Summary of the method: (§2)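 Visual rating (% effect vs. untreated plants; 100% = plant death) made about 3 weeks after treatment. Plants had been sprayed at one-leaf stage, 2–3 weeks post-sowing, with aqueous WP/EC preparations containing 0.5% additive, 600 l/ha water volume; a, b, c mark dose levels.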

[9] = system: Triticum aestivum (TRZAS); conditions: crop plant compatibility, effect vs untreated controls
Summary of the method: as §2

Zea mays (ZEAMX) = conditions: for Post-emergence action against ZEAMX in % (crop plant compatibility): 20 g/ha, effect in comparison to untreated controls; for Post-emergence action against ZEAMX in %: crop plant compatibility, 80 g/ha, effect vs untreated controls
Summary of the method: as §2

[10] = system: Polygonum convolvulus (POLCO); assay: Post-emergence herbicidal action against POLCO
Summary of the method: as §1

[11] = 80 g/ha, visual rating about 3 weeks after treatment vs untreated controls (100% = plants have died, 0% = like control plants)
[12] = 320 g/ha, visual rating about 3 weeks after treatment
[13] = 20 g/ha, effect vs untreated controls
[14] = 80 g/ha, effect in comparison to untreated controls
[15] = 320 g/ha, effect in comparison to untreated controls

Compound	Post-emergence action against ORYSA in % (Oryza sativa (ORYSA); [13])	Post-emergence action against ORYSA in % (Oryza sativa (ORYSA); [14])	Post-emergence action against TRZAS in % ([9]; 20 g/ha)	Post-emergence action against ZEAMX in % (crop plant compatibility) (Zea mays (ZEAMX))	Post-emergence action against ZEAMX in % (Zea mays (ZEAMX))	Post-emergence action against ABUTH in % ([1]; 320 g/ha)	Post-emergence action against ALOMY in % [2]	Post-emergence action against AMARE in % [3, 12]	Post-emergence action against AVEFA in % (Avena fatua (AVEFA))	Post-emergence action against DIGSA in % ([4]; 320 g/ha)	Post-emergence action against ECHCG in % ([5]; dosage 80 g/ha)	Post-emergence action against ECHCG in % ([5]; dosage 320 g/ha)	Post-emergence action against MATIN in % ([6]; dosage 320 g/ha)	Post-emergence action against PHBPU in % ([7]; dosage 320 g/ha)	Post-emergence action against SETVI in % (Setaria viridis (SETVI); dosage 320 g/ha)	Post-emergence action against VERPE in % ([8]; 320 g/ha, VERPE)	Post-emergence action against VERPE in % ([8]; dosage 80 g/ha)	Post-emergence action against VIOTR in % (Viola tricolor (VIOTR); 80 g/ha)	Post-emergence action against VIOTR in % (Viola tricolor (VIOTR); 320 g/ha)	Post-emergence action against PHBPU in % ([7]; dosage 80 g/ha)	further results
O=C(COc1nn(-c2ncccc2F)c(-c2ccc(F)nc2)c1C1CC1)OCc1ccccc1 [Example I-287]	0%	20%	20%	10%	20%	90%	90%	80%	90%	80%	90%	90%	80%	80%	90%	80%	80%	80%	90%		Post-emergence action against AMARE in % [3, 11]: 80%; Post-emergence action against DIGSA in % ([4]; 80 g/ha): 80%; Post-emergence action against LOLRI in % (Lolium rigidum (LOLRI); dosage 80 g/ha): 90%; Post-emergence action against LOLRI in % (Lolium rigidum (LOLRI); dosage 320 g/ha): 90%; Post-emergence action against SETVI in % (Setaria viridis (SETVI); dosage 80 g/ha): 90%
N#CCOC(=O)COc1nn(-c2ncccc2F)c(-c2ccc(F)nc2)c1C1CC1 [Example I-294]	10%		10%	20%		80%	90%	80%	90%	90%	80%	90%	90%		90%	90%	90%	90%	90%		Post-emergence action against DIGSA in % ([4]; 80 g/ha): 80%; Post-emergence action against LOLRI in % (Lolium rigidum (LOLRI); dosage 320 g/ha): 90%; Post-emergence action against SETVI in % (Setaria viridis (SETVI); dosage 80 g/ha): 90%
Cc1cccnc1-n1nc(OCC(=O)O)c(Cl)c1-c1cncc(F)c1 [Example I-182]	10%		10%	10%	20%	80%	80%	90%	90%	100%	90%	90%	90%	90%	80%	90%	80%	80%	90%	90%	Post-emergence action against ABUTH in % ([1]; 80 g/ha): 80%; Post-emergence action against AMARE in % [3, 11]: 80%; Post-emergence action against DIGSA in % ([4]; 80 g/ha): 90%; Post-emergence action against MATIN in % ([6]; dosage 80 g/ha): 80%; Post-emergence action against POLCO in % ([10]; dosage 80 g/ha): 80%; Post-emergence action against POLCO in % ([10]; dosage 320 g/ha): 90%; Post-emergence action against SETVI in % (Setaria viridis (SETVI); dosage 80 g/ha): 80%
COC(=O)COc1nn(-c2ncccc2C)c(-c2cncc(F)c2)c1Br [Example I-179]	0%	20%	0%		20%	80%	90%	90%	90%	90%	90%	90%	90%	90%	90%	90%	90%	90%	90%	80%	Post-emergence action against ABUTH in % ([1]; 80 g/ha): 80%; Post-emergence action against AMARE in % [3, 11]: 90%; Post-emergence action against DIGSA in % ([4]; 80 g/ha): 90%; Post-emergence action against MATIN in % ([6]; dosage 80 g/ha): 80%; Post-emergence action against POLCO in % ([10]; dosage 80 g/ha): 90%; Post-emergence action against POLCO in % ([10]; dosage 320 g/ha): 90%; Post-emergence action against SETVI in % (Setaria viridis (SETVI); dosage 80 g/ha): 90%

Further lines, with some results ahead:

Post-emergence action against ORYSA in % (Oryza sativa (ORYSA); [13])	Post-emergence action against ORYSA in % (Oryza sativa (ORYSA); [14])	Post-emergence action against TRZAS in % ([9]; 20 g/ha)	Post-emergence action against ZEAMX in % (crop plant compatibility) (Zea mays (ZEAMX))	Post-emergence action against ZEAMX in % (Zea mays (ZEAMX))	Compound	Post-emergence action against ABUTH in % ([1]; 320 g/ha)	Post-emergence action against ALOMY in % [2]	Post-emergence action against AMARE in % [3, 12]	Post-emergence action against AVEFA in % (Avena fatua (AVEFA))	Post-emergence action against DIGSA in % ([4]; 320 g/ha)	Post-emergence action against ECHCG in % ([5]; dosage 80 g/ha)	Post-emergence action against ECHCG in % ([5]; dosage 320 g/ha)	Post-emergence action against MATIN in % ([6]; dosage 320 g/ha)	Post-emergence action against PHBPU in % ([7]; dosage 320 g/ha)	Post-emergence action against SETVI in % (Setaria viridis (SETVI); dosage 320 g/ha)	Post-emergence action against VERPE in % ([8]; 320 g/ha, VERPE)	Post-emergence action against VERPE in % ([8]; dosage 80 g/ha)	Post-emergence action against VIOTR in % (Viola tricolor (VIOTR); 80 g/ha)	Post-emergence action against VIOTR in % (Viola tricolor (VIOTR); 320 g/ha)	Post-emergence action against PHBPU in % ([7]; dosage 80 g/ha)	further results
0%	0%	0%	0%	0%	COC(=O)CCOC(=O)COc1nn(-c2cccnc2C)c(-c2cncc(F)c2)c1Br [II-41]	80%	90%	80%	90%	80%		90%	80%	90%	90%	90%	90%	80%	90%	80%	Post-emergence action against ORYSA in % (Oryza sativa (ORYSA); [15]): 0%; Post-emergence action against TRZAS in % ([9]; 80 g/ha): 0%
10%	20%	20%	10%		CCOC(=O)COc1nn(-c2ccncc2F)c(-c2ccc(F)nc2)c1Br [III-29]	80%	90%			90%	80%	80%	90%	90%	90%	80%				80%	Post-emergence action against LOLRI in % (Lolium rigidum (LOLRI); dosage 320 g/ha): 80%; Post-emergence action against MATIN in % ([6]; dosage 80 g/ha): 80%; Post-emergence action against POLCO in % ([10]; dosage 320 g/ha): 80%
0%	0%	0%			CCOC(=O)COc1nn(-c2cccnc2C)c(-c2cncc(F)c2)c1Br [II-45]	80%	90%	80%	90%	80%		90%	90%	90%	90%	90%	90%	90%	90%		Post-emergence action against POLCO in % ([10]; dosage 80 g/ha): 80%; Post-emergence action against POLCO in % ([10]; dosage 320 g/ha): 90%
0%	0%	10%	0%	20%	Cc1ncccc1-n1nc(OCC(=O)OCC2CCCO2)c(Br)c1-c1cncc(F)c1 (stereo not shown) [II-43]	80%	100%	90%	90%	80%		90%	80%	90%	90%	90%	90%	90%	90%	80%	Post-emergence action against POLCO in % ([10]; dosage 320 g/ha): 80%; Post-emergence action against ORYSA in % (Oryza sativa (ORYSA); [15]): 0%
